Organism: Rattus norvegicus
Test: Open TG-GATES - Regimen: Single
Format: toxicity, organism-based, Sprague-Dawley
Parameters: regimen Single, gender Male, age 6 weeks
Settings: in vivo, po, 0 mg/kg, route gavage, dose level Control; for APTT / Bas / Eos / Fbg / Hb / Ht / Lym / MCH / MCHC / MCV / Mono / Neu / PT / Plat / RBC / Ret / WBC: tissue Blood; for KIDNEY_L / KIDNEY_R / KIDNEY_TOTAL: tissue Kidney; for LIVER: tissue Liver; for A/G / ALP / ALT / AST / BUN / CRE / Ca / Cl / DBIL / GLC / IP / K / LDH / Na / PL / RALB / TBIL / TC / TG / TP / gamma-GTP: tissue Plasma

CCCNC(=O)NS(=O)(=O)c1ccc(Cl)cc1 [CHLORPROPAMIDE]
TERMINAL_BW (3 h): 199.1 g
APTT (3 h): 16.5 s
Bas (3 h): 0.4%
Eos (3 h): 1%
Fbg (3 h): 290 mg/dL
Hb (3 h): 13.3 g/dL
Ht (3 h): 40.3%
Lym (3 h): 76.2%
MCH (3 h): 21.1 pg
MCHC (3 h): 32.9%
MCV (3 h): 64.1 fL
Mono (3 h): 3.4%
Neu (3 h): 17.8%
PT (3 h): 15.6 s
Plat (3 h): 118.9 x10_4/uL
RBC (3 h): 629.8 x10_4/ul
Ret (3 h): 8.9%
WBC (3 h): 85.4 x10_2/uL
KIDNEY_L (3 h): 0.9 g
KIDNEY_R (3 h): 0.9 g
KIDNEY_TOTAL (3 h): 1.8 g
LIVER (3 h): 8.8 g
A/G (3 h): 0.9
ALP (3 h): 1444 IU/L
ALT (3 h): 43.6 IU/L
AST (3 h): 75.8 IU/L
BUN (3 h): 10.4 mg/dL
CRE (3 h): 0.2 mg/dL
Ca (3 h): 10.9 mg/dL
Cl (3 h): 106 meq/L
DBIL (3 h): 0.01 mg/dL
GLC (3 h): 176.6 mg/dL
IP (3 h): 8.9 mg/dL
K (3 h): 4.3 meq/L
LDH (3 h): 89 IU/L
Na (3 h): 142.2 meq/L
PL (3 h): 137.8 mg/dL
RALB (3 h): 2.5 g/dL
TBIL (3 h): 0.04 mg/dL
TC (3 h): 80.2 mg/dL
TG (3 h): 53.8 mg/dL
TP (3 h): 5.4 g/dL
gamma-GTP (3 h): 1.4 IU/L
TERMINAL_BW (6 h): 194.7 g
APTT (6 h): 18.3 s
Bas (6 h): 0.2%
Eos (6 h): 1%
Fbg (6 h): 308.8 mg/dL
Hb (6 h): 13.2 g/dL
Ht (6 h): 40.5%
Lym (6 h): 71.2%
MCH (6 h): 21 pg
MCHC (6 h): 32.6%
MCV (6 h): 64.3 fL
Mono (6 h): 3%
Neu (6 h): 23.8%
PT (6 h): 15.4 s
Plat (6 h): 108.8 x10_4/uL
RBC (6 h): 630.6 x10_4/ul
Ret (6 h): 9.2%
WBC (6 h): 85.6 x10_2/uL
KIDNEY_L (6 h): 0.9 g
KIDNEY_R (6 h): 0.9 g
KIDNEY_TOTAL (6 h): 1.7 g
LIVER (6 h): 8.2 g
A/G (6 h): 0.9
ALP (6 h): 1385.6 IU/L
ALT (6 h): 42.4 IU/L
AST (6 h): 74.4 IU/L
BUN (6 h): 9.4 mg/dL
CRE (6 h): 0.2 mg/dL
Ca (6 h): 10.7 mg/dL
Cl (6 h): 106 meq/L
DBIL (6 h): 0.01 mg/dL
GLC (6 h): 174 mg/dL
IP (6 h): 9.8 mg/dL
K (6 h): 4.2 meq/L
LDH (6 h): 63.6 IU/L
Na (6 h): 143 meq/L
PL (6 h): 153.4 mg/dL
RALB (6 h): 2.5 g/dL
TBIL (6 h): 0.046 mg/dL
TC (6 h): 90.6 mg/dL
TG (6 h): 50.6 mg/dL
TP (6 h): 5.4 g/dL
gamma-GTP (6 h): 1 IU/L

From ChEMBL document CHEMBL3885861, “Open TG-GATES”
